Activity calls are given as the source filed them. No cut-off for these calls is given here.
Legend:
Beta catenin-BCL9 = target: T1, Beta catenin-BCL9 (Mus musculus, UniProt Q02248+Q9D219); test: Inhibition of beta-catenin/BCL9 protein-protein interaction in Wnt-dependent mouse CT26 cells assessed as reduction in Axin2 expression level by qRT-PCR assay; format: cell-based
T1 sequence (Q02248 whole entry): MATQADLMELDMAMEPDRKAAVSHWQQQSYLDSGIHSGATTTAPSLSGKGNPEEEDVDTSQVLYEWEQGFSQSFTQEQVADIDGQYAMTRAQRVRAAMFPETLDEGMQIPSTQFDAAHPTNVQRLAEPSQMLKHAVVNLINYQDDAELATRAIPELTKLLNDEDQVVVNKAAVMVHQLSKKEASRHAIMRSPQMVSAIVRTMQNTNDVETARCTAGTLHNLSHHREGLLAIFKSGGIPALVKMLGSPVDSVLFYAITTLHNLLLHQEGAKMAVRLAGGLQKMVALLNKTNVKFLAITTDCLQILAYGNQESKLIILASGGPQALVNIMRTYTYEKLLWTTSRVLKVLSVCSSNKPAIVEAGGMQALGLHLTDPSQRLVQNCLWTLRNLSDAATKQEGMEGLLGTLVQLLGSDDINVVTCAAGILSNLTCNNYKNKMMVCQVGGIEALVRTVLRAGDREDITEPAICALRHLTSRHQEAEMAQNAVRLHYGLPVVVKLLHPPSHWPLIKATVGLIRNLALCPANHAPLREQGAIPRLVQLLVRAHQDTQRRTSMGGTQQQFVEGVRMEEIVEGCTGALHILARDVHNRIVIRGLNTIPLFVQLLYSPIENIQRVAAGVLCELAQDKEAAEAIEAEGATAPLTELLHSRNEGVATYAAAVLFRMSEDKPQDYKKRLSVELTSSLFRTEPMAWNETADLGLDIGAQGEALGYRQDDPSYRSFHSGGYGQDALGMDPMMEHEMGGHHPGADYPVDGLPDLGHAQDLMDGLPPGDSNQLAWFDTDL
T1 sequence (Q9D219 whole entry): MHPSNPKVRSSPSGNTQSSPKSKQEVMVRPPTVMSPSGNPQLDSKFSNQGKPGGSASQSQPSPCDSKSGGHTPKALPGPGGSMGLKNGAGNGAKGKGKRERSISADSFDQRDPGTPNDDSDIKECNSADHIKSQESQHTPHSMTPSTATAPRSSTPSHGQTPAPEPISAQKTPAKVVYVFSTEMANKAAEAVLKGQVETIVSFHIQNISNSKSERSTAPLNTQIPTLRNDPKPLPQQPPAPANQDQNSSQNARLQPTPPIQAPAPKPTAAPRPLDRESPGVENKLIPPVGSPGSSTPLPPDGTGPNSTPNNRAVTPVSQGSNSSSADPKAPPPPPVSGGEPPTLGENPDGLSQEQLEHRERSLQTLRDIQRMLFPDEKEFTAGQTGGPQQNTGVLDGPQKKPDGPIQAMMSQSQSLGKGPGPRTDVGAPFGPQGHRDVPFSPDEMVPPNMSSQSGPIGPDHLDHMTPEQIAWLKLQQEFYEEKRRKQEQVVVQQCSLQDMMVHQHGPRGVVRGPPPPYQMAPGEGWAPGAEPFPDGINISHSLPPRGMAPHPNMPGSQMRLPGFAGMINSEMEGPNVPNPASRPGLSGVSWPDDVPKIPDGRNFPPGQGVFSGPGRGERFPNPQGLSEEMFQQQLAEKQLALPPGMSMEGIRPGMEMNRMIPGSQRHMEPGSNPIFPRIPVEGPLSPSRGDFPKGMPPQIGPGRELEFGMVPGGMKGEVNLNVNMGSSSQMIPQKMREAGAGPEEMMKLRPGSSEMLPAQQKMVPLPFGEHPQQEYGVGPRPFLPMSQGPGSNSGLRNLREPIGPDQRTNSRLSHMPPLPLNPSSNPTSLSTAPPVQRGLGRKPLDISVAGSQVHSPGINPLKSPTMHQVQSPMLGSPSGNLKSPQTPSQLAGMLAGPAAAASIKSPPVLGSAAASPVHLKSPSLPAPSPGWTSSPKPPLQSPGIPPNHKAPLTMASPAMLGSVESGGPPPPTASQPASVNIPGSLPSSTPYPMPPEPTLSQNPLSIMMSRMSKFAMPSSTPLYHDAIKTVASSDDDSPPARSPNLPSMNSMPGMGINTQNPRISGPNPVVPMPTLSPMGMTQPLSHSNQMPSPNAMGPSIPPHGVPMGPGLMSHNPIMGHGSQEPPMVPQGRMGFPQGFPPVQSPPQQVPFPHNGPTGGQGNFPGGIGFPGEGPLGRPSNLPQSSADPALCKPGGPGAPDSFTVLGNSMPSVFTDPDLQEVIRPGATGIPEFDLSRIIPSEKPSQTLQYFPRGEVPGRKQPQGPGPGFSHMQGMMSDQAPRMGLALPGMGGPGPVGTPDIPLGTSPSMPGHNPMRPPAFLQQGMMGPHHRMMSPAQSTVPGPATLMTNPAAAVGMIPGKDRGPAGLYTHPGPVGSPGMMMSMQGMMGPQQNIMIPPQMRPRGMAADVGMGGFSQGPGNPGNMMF

HCT-116 [1] = test: Induction of apoptosis in Wnt-dependent human HCT-116 cells assessed as necrotic cells at 20 uM incubated for 24 hrs by Annexin V-Alexa Fluor 647/PI staining based flow cytomtery (Rvb=1.47%); format: functional
HCT-116 [2] = test: Induction of apoptosis in Wnt-dependent human HCT-116 cells assessed as late apoptotic cells at 10 uM incubated for 24 hrs by Annexin V-Alexa Fluor 647/PI staining based flow cytomtery (Rvb=14.7%); format: functional
EL4 = test: Cytotoxicity against CFSE labeled SIINFEKL activated OT-1 mouse derived EL4 cells assessed as change in antigen specific cell viability at 1 to 10 uM preincubated with compound for 24 hrs followed by co-cultured with C57BL/6 mouse splenocyte derived CD8+ T cells in presence of anti-PD-1 antibody cotreatment by flow cytometry; format: functional, cell-based; conditions: dose 1-10 µM
[3] = Toxicity in BALB/c mouse xenografted with mouse CT26 cells assessed as pathological changes in liver at 30 mg/kg, ip QD by hematoxylin and eosin staining based microscopic analysis; format: organism-based; conditions: in vivo
CT26 [4] = test: Antitumor activity in mouse CT26 cells xenografted in BALB/c mouse assessed as increase in IFNG mRNA expression level in tumor at 30 mg/kg, ip QD by qRT-PCR analysis; format: functional, organism-based
CT26 [5] = test: cells; conditions: Mus musculus, CT26, 48 h
HCT-116 [6] = test: cells; conditions: Homo sapiens, HCT-116, 48 h
SW480 = test: cells; conditions: Homo sapiens, SW480, 48 h
A549 = test: cells; conditions: Homo sapiens, A549, 48 h
RKO = test: cells; conditions: Homo sapiens, 48 h
HEK293 = test: cells; conditions: Homo sapiens, HEK293, 48 h
CT26 [7] = test: cells; conditions: Mus musculus, CT26, 48 h; remark: listed apart in the source

IC50 (Beta catenin-BCL9) [µM] | IC50 (CT26 [5]) [µM] | IC50 (HCT-116 [6]) [µM] | IC50 (SW480) [µM] | IC50 (A549) [µM] | IC50 (RKO) [µM] | IC50 (CT26 [7]) [µM] | Structure (SMILES) | Activity (HCT-116 [1]) [%] | Activity (HCT-116 [2]) [%] | Activity (EL4) | Activity [3] | Activity (CT26 [4]) | IC50 (HEK293) [µM]
0.66 | 4.74 | 9.25 | 16.2 | > 40 | > 40 | 69.7 | CC(C)c1ccc(-c2cccc(S(=O)(=O)N3CCCC(c4cccc(OC(C)(C)C(=O)NS(=O)(=O)c5ccc(C(F)(F)F)cc5)c4)C3)c2)cc1 (stereo not given) | 3.22 | 21.5 | Dose-Dependent Effect | Non-Toxic | Active | > 40
4.62 | 18.6 | 32.7 | 8.43 | 54.1 | 77.5 | – | O=C1[C@H](Cc2ccc(O)cc2)N2C(=O)CCN(C(=O)NCc3ccccc3)[C@H]2CN1Cc1cccc2ccccc12 | – | – | – | – | – | 75.4

From ChEMBL document CHEMBL5316313, “Discovery of Novel 3-Phenylpiperidine Derivatives Targeting the β-Catenin/B-Cell Lymphoma 9 Interaction as a Single Agent and in Combination with the Anti-PD-1 Antibody for the Treatment of Colorectal Cancer” (J Med Chem, 2023)
